Reference: patent US20250255847A1, “[…]s: Novel Drugs for Triple Negative Breast Cancer” (SIMMARON RSEARCH INC, priority 2024, published 2025)

Target: T1, DNA binding activity of STAT3 (Homo sapiens, UniProt P40763)
T1 construct: endogenous in cells; host or cells: MDA-MB-468 (nuclear extract)
Assay: Electrophoretic mobility shift assay (EMSA) in nuclear extracts
Format: cell-based
Details: EGF (20 ng/mL)-stimulated MDA-MB-468 nuclear extract, SIM-1 20 nM (FIG. 9B)
Method: FIG. 9 illustrates an embodiment of the present invention and illustrates promoter recruitment assay of STAT3 in IL6 promoter. (A) MDA-MB-468 cells were treated with 5, 10, and 20 ng/mL doses of EGF for 5 hrs followed by immunoblot (IB) analyses of Y705 phospho and S727 phospho STAT3 in nuclear extracts. Histone 3 ([…]) IB was run as control. (B) EMSA analyses were performed in nuclear extracts of EGF (20 ng/mL)- and EGF+SIM-1 (20 nM)-treated MDA-MB-468 cells against the STAT3-specific oligonucleotide probe (Li-Cor bioscience; Cat #P/N: 829-07922) or SEQ ID NO: 1 and resolved in 6% DNA retardation gel (Invitrogen). (C) Chromatin immunoprecipitation assay was performed in the nuclear extracts of MDA-MB-468 cells treated with EGF or EGF+SIM-1 for 5 hrs. Y705P STAT3 antibody was used for chromatin immunoprecipitation and IgG precipitation was performed as a control.
Electrophoretic Mobility Shift Assay (EMSA). EMSA was performed in […] as described before. […] were treated with 25 ng/mL EGF alone or together with SIM1 (5 nM) for 5 hrs followed by nuclear fractionation with nuclear extraction kit (Abcam). […]

T1 sequence (P40763 2-770 limits assumed): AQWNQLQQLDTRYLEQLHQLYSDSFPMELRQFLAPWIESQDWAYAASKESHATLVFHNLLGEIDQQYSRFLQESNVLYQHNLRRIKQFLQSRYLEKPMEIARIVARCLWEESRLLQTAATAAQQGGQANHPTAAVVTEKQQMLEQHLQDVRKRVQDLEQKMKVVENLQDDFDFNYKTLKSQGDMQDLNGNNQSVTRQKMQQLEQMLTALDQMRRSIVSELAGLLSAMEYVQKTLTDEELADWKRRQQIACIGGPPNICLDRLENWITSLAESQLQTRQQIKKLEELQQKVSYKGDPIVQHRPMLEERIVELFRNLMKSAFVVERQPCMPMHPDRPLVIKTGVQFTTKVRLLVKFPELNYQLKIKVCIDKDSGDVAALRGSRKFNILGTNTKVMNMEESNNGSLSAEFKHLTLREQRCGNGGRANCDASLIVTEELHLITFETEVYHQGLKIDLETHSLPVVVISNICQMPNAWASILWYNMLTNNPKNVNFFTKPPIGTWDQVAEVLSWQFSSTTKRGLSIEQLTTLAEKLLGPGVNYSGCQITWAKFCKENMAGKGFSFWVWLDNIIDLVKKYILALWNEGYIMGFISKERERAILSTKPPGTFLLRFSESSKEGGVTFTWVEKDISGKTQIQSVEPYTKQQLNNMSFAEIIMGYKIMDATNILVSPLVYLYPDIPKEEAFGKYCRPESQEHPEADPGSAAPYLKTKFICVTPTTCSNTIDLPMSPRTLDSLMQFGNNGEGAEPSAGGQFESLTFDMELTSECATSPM

SMILES: O=C(O)CCC(=O)NCc1csc2ccc(Cl)cc12 [SIM-1, 4-[(5-chloro-1-benzothiophen-3-yl)methylamino]-4-oxobutanoic acid]
- DNA binding activity of STAT3: markedly inhibited
